Earlier results as cited in article PMC2831464 (Clinical cancer research : an official journal of the …, 2010).

Details: cited from earlier work

SMILES	lactone AUC ratio	half-life [h]	share in the lactone form in plasma
CCc1c2c(nc3ccc(O)cc13)-c1cc3c(c(=O)n1C2)COC(=O)[C@]3(O)CC [SN-38]	30~76%		
CC[C@@]1(O)C(=O)OCc2c1cc1n(c2=O)Cc2c-1nc1ccccc1c2/C=N/OC(C)(C)C [gimatecan]		77	90–98%
CC[C@@]1(O)C(=O)OCc2c1cc1n(c2=O)Cc2c-1nc1ccccc1c2CC[Si](C)(C)C [karenitecin]		15	90–95%
CC[C@@]1(O)C(=O)OCc2c1cc1n(c2=O)Cc2cc3c(CN(C)C)c(O)ccc3nc2-1 [topotecan]	30~76%		
